Source: ChEMBL document CHEMBL3885861, “Open TG-GATES”

Species on record: Rattus norvegicus
Experiment: Open TG-GATES - Regimen: Single
Assay type: toxicity, organism-based, Sprague-Dawley
Design: regimen Single, gender Male, age 6 weeks
Conditions: in vivo, po, route gavage; for Hb / Ht / Lym / MCHC / MCV / Mono / Neu / PT / Plat / RBC / Ret / WBC / APTT / Bas / Eos / Fbg: tissue Blood; for KIDNEY_L / KIDNEY_R / KIDNEY_TOTAL: tissue Kidney; for LIVER: tissue Liver; for ALP / ALT / AST / BUN / CRE / Ca / Cl / DBIL / IP / LDH / Na / PL / RALB / TBIL / TC / TG / TP / gamma-GTP / GLC: tissue Plasma
[1] = 120 mg/kg, 3 h, dose level Middle

CC(C)N(CCC(C(N)=O)(c1ccccc1)c1ccccn1)C(C)C (centres undefined) [DISOPYRAMIDE]
Hb (40 mg/kg, 3 h, dose level Low): 13 g/dL
Ht (40 mg/kg, 3 h, dose level Low): 40.8%
Lym (40 mg/kg, 3 h, dose level Low): 79.6%
MCHC (40 mg/kg, 3 h, dose level Low): 32%
MCV (40 mg/kg, 3 h, dose level Low): 64.4 fL
Mono (40 mg/kg, 3 h, dose level Low): 2.6%
Neu (40 mg/kg, 3 h, dose level Low): 15.8%
PT (40 mg/kg, 3 h, dose level Low): 15.5 s
Plat (40 mg/kg, 3 h, dose level Low): 122.4 x10_4/uL
RBC (40 mg/kg, 3 h, dose level Low): 633.6 x10_4/ul
Ret (40 mg/kg, 3 h, dose level Low): 8.2%
WBC (40 mg/kg, 3 h, dose level Low): 102.4 x10_2/uL
KIDNEY_L (40 mg/kg, 3 h, dose level Low): 0.9 g
KIDNEY_R (40 mg/kg, 3 h, dose level Low): 1 g
KIDNEY_TOTAL (40 mg/kg, 3 h, dose level Low): 1.9 g
LIVER (40 mg/kg, 3 h, dose level Low): 9.9 g
ALP (40 mg/kg, 3 h, dose level Low): 1280.4 IU/L
ALT (40 mg/kg, 3 h, dose level Low): 48.2 IU/L
AST (40 mg/kg, 3 h, dose level Low): 73.2 IU/L
BUN (40 mg/kg, 3 h, dose level Low): 10.6 mg/dL
CRE (40 mg/kg, 3 h, dose level Low): 0.2 mg/dL
Ca (40 mg/kg, 3 h, dose level Low): 10.7 mg/dL
Cl (40 mg/kg, 3 h, dose level Low): 107.4 meq/L
DBIL (40 mg/kg, 3 h, dose level Low): 0 mg/dL
IP (40 mg/kg, 3 h, dose level Low): 8.5 mg/dL
LDH (40 mg/kg, 3 h, dose level Low): 163.4 IU/L
Na (40 mg/kg, 3 h, dose level Low): 140.8 meq/L
PL (40 mg/kg, 3 h, dose level Low): 143.2 mg/dL
RALB (40 mg/kg, 3 h, dose level Low): 3 g/dL
TBIL (40 mg/kg, 3 h, dose level Low): 0.002 mg/dL
TC (40 mg/kg, 3 h, dose level Low): 82.4 mg/dL
TG (40 mg/kg, 3 h, dose level Low): 60.6 mg/dL
TP (40 mg/kg, 3 h, dose level Low): 5.5 g/dL
gamma-GTP (40 mg/kg, 3 h, dose level Low): 1.6 IU/L
TERMINAL_BW (40 mg/kg, 6 h, dose level Low): 212.3 g
APTT (40 mg/kg, 6 h, dose level Low): 21.2 s
Bas (40 mg/kg, 6 h, dose level Low): 0%
Eos (40 mg/kg, 6 h, dose level Low): 0.6%
Fbg (40 mg/kg, 6 h, dose level Low): 307.6 mg/dL
Hb (40 mg/kg, 6 h, dose level Low): 13 g/dL
Ht (40 mg/kg, 6 h, dose level Low): 40.9%
Lym (40 mg/kg, 6 h, dose level Low): 80.6%
MCHC (40 mg/kg, 6 h, dose level Low): 31.8%
MCV (40 mg/kg, 6 h, dose level Low): 64.3 fL
Mono (40 mg/kg, 6 h, dose level Low): 2.4%
Neu (40 mg/kg, 6 h, dose level Low): 15.8%
PT (40 mg/kg, 6 h, dose level Low): 15.5 s
Plat (40 mg/kg, 6 h, dose level Low): 119.9 x10_4/uL
RBC (40 mg/kg, 6 h, dose level Low): 635.8 x10_4/ul
Ret (40 mg/kg, 6 h, dose level Low): 8.1%
WBC (40 mg/kg, 6 h, dose level Low): 80.4 x10_2/uL
KIDNEY_L (40 mg/kg, 6 h, dose level Low): 1 g
KIDNEY_R (40 mg/kg, 6 h, dose level Low): 1 g
KIDNEY_TOTAL (40 mg/kg, 6 h, dose level Low): 2 g
LIVER (40 mg/kg, 6 h, dose level Low): 9.3 g
ALP (40 mg/kg, 6 h, dose level Low): 1258.6 IU/L
ALT (40 mg/kg, 6 h, dose level Low): 40 IU/L
AST (40 mg/kg, 6 h, dose level Low): 71.2 IU/L
BUN (40 mg/kg, 6 h, dose level Low): 12.4 mg/dL
CRE (40 mg/kg, 6 h, dose level Low): 0.1 mg/dL
Ca (40 mg/kg, 6 h, dose level Low): 10.8 mg/dL
Cl (40 mg/kg, 6 h, dose level Low): 106.2 meq/L
DBIL (40 mg/kg, 6 h, dose level Low): 0 mg/dL
GLC (40 mg/kg, 6 h, dose level Low): 168.6 mg/dL
IP (40 mg/kg, 6 h, dose level Low): 9.5 mg/dL
LDH (40 mg/kg, 6 h, dose level Low): 161.8 IU/L
Na (40 mg/kg, 6 h, dose level Low): 140 meq/L
PL (40 mg/kg, 6 h, dose level Low): 132.2 mg/dL
RALB (40 mg/kg, 6 h, dose level Low): 3 g/dL
TBIL (40 mg/kg, 6 h, dose level Low): 0.008 mg/dL
TC (40 mg/kg, 6 h, dose level Low): 75 mg/dL
TG (40 mg/kg, 6 h, dose level Low): 75.8 mg/dL
TP (40 mg/kg, 6 h, dose level Low): 5.4 g/dL
gamma-GTP (40 mg/kg, 6 h, dose level Low): 1 IU/L
TERMINAL_BW (40 mg/kg, 9 h, dose level Low): 203.3 g
APTT (40 mg/kg, 9 h, dose level Low): 21.6 s
Bas (40 mg/kg, 9 h, dose level Low): 0%
Eos (40 mg/kg, 9 h, dose level Low): 0.6%
Fbg (40 mg/kg, 9 h, dose level Low): 328.4 mg/dL
Hb (40 mg/kg, 9 h, dose level Low): 13 g/dL
Ht (40 mg/kg, 9 h, dose level Low): 40.3%
Lym (40 mg/kg, 9 h, dose level Low): 77.6%
MCHC (40 mg/kg, 9 h, dose level Low): 32.3%
MCV (40 mg/kg, 9 h, dose level Low): 64 fL
Mono (40 mg/kg, 9 h, dose level Low): 2%
PT (40 mg/kg, 9 h, dose level Low): 15.6 s
Plat (40 mg/kg, 9 h, dose level Low): 124.6 x10_4/uL
RBC (40 mg/kg, 9 h, dose level Low): 630.4 x10_4/ul
Ret (40 mg/kg, 9 h, dose level Low): 7.9%
WBC (40 mg/kg, 9 h, dose level Low): 88.7 x10_2/uL
KIDNEY_L (40 mg/kg, 9 h, dose level Low): 0.9 g
KIDNEY_R (40 mg/kg, 9 h, dose level Low): 1 g
KIDNEY_TOTAL (40 mg/kg, 9 h, dose level Low): 1.9 g
LIVER (40 mg/kg, 9 h, dose level Low): 8.7 g
ALP (40 mg/kg, 9 h, dose level Low): 1420.4 IU/L
ALT (40 mg/kg, 9 h, dose level Low): 34.2 IU/L
AST (40 mg/kg, 9 h, dose level Low): 68.6 IU/L
BUN (40 mg/kg, 9 h, dose level Low): 12.4 mg/dL
CRE (40 mg/kg, 9 h, dose level Low): 0.1 mg/dL
Ca (40 mg/kg, 9 h, dose level Low): 10.8 mg/dL
Cl (40 mg/kg, 9 h, dose level Low): 107.2 meq/L
DBIL (40 mg/kg, 9 h, dose level Low): 0 mg/dL
GLC (40 mg/kg, 9 h, dose level Low): 169.6 mg/dL
IP (40 mg/kg, 9 h, dose level Low): 9.5 mg/dL
LDH (40 mg/kg, 9 h, dose level Low): 151.6 IU/L
Na (40 mg/kg, 9 h, dose level Low): 140.8 meq/L
PL (40 mg/kg, 9 h, dose level Low): 129.4 mg/dL
RALB (40 mg/kg, 9 h, dose level Low): 3.1 g/dL
TBIL (40 mg/kg, 9 h, dose level Low): 0.008 mg/dL
TC (40 mg/kg, 9 h, dose level Low): 75.4 mg/dL
TG (40 mg/kg, 9 h, dose level Low): 58.2 mg/dL
TP (40 mg/kg, 9 h, dose level Low): 5.5 g/dL
gamma-GTP (40 mg/kg, 9 h, dose level Low): 1.2 IU/L
TERMINAL_BW (40 mg/kg, 24 h, dose level Low): 217.8 g
APTT (40 mg/kg, 24 h, dose level Low): 22.7 s
Bas (40 mg/kg, 24 h, dose level Low): 0%
Eos (40 mg/kg, 24 h, dose level Low): 0.8%
Fbg (40 mg/kg, 24 h, dose level Low): 306 mg/dL
Hb (40 mg/kg, 24 h, dose level Low): 13.2 g/dL
Ht (40 mg/kg, 24 h, dose level Low): 40.2%
Lym (40 mg/kg, 24 h, dose level Low): 79.4%
MCHC (40 mg/kg, 24 h, dose level Low): 32.8%
MCV (40 mg/kg, 24 h, dose level Low): 64.5 fL
Mono (40 mg/kg, 24 h, dose level Low): 1.8%
Neu (40 mg/kg, 24 h, dose level Low): 17.2%
PT (40 mg/kg, 24 h, dose level Low): 15.3 s
Plat (40 mg/kg, 24 h, dose level Low): 115.3 x10_4/uL
RBC (40 mg/kg, 24 h, dose level Low): 623 x10_4/ul
Ret (40 mg/kg, 24 h, dose level Low): 7%
WBC (40 mg/kg, 24 h, dose level Low): 91.1 x10_2/uL
KIDNEY_L (40 mg/kg, 24 h, dose level Low): 0.9 g
KIDNEY_R (40 mg/kg, 24 h, dose level Low): 1 g
KIDNEY_TOTAL (40 mg/kg, 24 h, dose level Low): 1.9 g
LIVER (40 mg/kg, 24 h, dose level Low): 10.5 g
ALP (40 mg/kg, 24 h, dose level Low): 1700.4 IU/L
ALT (40 mg/kg, 24 h, dose level Low): 47.2 IU/L
AST (40 mg/kg, 24 h, dose level Low): 71.8 IU/L
BUN (40 mg/kg, 24 h, dose level Low): 15.4 mg/dL
CRE (40 mg/kg, 24 h, dose level Low): 0.1 mg/dL
Ca (40 mg/kg, 24 h, dose level Low): 10.6 mg/dL
Cl (40 mg/kg, 24 h, dose level Low): 105.6 meq/L
DBIL (40 mg/kg, 24 h, dose level Low): 0 mg/dL
IP (40 mg/kg, 24 h, dose level Low): 8 mg/dL
LDH (40 mg/kg, 24 h, dose level Low): 156.2 IU/L
Na (40 mg/kg, 24 h, dose level Low): 142.8 meq/L
PL (40 mg/kg, 24 h, dose level Low): 147 mg/dL
RALB (40 mg/kg, 24 h, dose level Low): 3 g/dL
TBIL (40 mg/kg, 24 h, dose level Low): 0.002 mg/dL
TC (40 mg/kg, 24 h, dose level Low): 76.4 mg/dL
TG (40 mg/kg, 24 h, dose level Low): 96 mg/dL
TP (40 mg/kg, 24 h, dose level Low): 5.4 g/dL
gamma-GTP (40 mg/kg, 24 h, dose level Low): 1.6 IU/L
TERMINAL_BW [1]: 205.2 g
APTT [1]: 23.3 s
